Laboratory results reported in US20110263564A1, “PYRIDINE, BICYCLIC PYRIDINE AND RELATED ANALOGS AS SIRTUIN MODULATORS” (Sirtris Pharmaceuticals, Inc., priority 2008, published 2011).

Target: T1, SIRT1 (Homo sapiens, UniProt Q96EB6)
T1 sequence (Q96EB6 1-747): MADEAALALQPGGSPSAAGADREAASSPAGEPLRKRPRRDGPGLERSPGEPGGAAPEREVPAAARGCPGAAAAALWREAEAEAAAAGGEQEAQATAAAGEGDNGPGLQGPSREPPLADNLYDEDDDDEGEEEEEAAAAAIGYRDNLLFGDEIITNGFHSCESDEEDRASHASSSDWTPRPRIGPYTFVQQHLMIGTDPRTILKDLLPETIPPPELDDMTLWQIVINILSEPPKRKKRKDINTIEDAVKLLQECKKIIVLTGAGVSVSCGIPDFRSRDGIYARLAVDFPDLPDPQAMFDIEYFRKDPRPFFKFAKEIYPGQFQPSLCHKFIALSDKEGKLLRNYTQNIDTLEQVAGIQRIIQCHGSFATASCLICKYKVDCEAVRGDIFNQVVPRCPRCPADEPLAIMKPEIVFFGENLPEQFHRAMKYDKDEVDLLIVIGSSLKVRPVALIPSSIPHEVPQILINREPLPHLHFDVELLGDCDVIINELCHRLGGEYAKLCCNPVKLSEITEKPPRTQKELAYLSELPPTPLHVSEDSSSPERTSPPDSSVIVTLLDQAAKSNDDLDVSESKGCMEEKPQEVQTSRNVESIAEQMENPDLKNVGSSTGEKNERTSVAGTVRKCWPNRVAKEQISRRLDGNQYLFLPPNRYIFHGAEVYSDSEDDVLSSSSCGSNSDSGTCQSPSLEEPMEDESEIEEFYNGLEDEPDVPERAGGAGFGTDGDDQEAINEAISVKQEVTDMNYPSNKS
Assay: Mass spectrometry based assay of SIRT1 activity (deacetylation of a p53-based acetylated peptide)
Type: biochemical
Conditions: 10 nM SIRT1, 0.5 μM peptide substrate, 120 μM βNAD+, 25 minutes at 25° C.; for Emax: read-out: % FOLD ACT. (percent maximum fold activation)
Text: A mass spectrometry based assay was used to identify modulators of SIRT1 activity. The mass spectrometry based assay utilizes a peptide having 20 amino acid residues as follows: Ac-EE-K(biotin)-GQSTSSHSK(Ac)NleSTEG-K(5TMR)-EE-NH2 (SEQ ID NO: 1) wherein K(Ac) is an acetylated lysine residue and Nle is a norleucine. The peptide is labeled with the fluorophore 5TMR (excitation 540 nm/emission 580 nm) at the C-terminus. The sequence of the peptide substrate is based on p53 with several modifications. In addition, the methionine residue naturally present in the sequence was replaced with the norleucine because the methionine may be susceptible to oxidation during synthesis and purification.
The mass spectrometry assay is conducted as follows: 0.5 μM peptide substrate and 120 μM βNAD^+ is incubated with 10 nM SIRT1 for 25 minutes at 25° C. in a reaction buffer (50 mM Tris-acetate pH 8, 137 mM NaCl, 2.7 mM KCl, 1 mM MgCl2, 5 mM DTT, 0.05% BSA). Test compounds may be added to the reaction as described above. […] After the 25 minute incubation with SIRT1, 10 μL of 10% formic acid is added to stop the reaction. Reactions are sealed and frozen for later mass spec analysis. Determination of the mass of the substrate peptide allows for precise determination of the degree of acetylation (i.e. starting material) as compared to deacetylated peptide (product).
A control for inhibition of sirtuin activity is conducted by adding 1 μL of 500 mM nicotinamide as a negative control at the start of the reaction (e.g., permits determination of maximum sirtuin inhibition). A control for activation of sirtuin activity is conducted using 10 nM of sirtuin protein, with 1 μL of DMSO in place of compound, to determine the amount of deacetylation of the substrate at a given timepoint within the linear range of the assay. This timepoint is the same as that used for test compounds and, within the linear range, the endpoint represents a change in velocity.
For the above assay, SIRT1 protein was expressed and purified as follows. […] The protein was expressed by induction with 1 mM IPTG as an N-terminal His-tag fusion protein at 18° C. overnight and harvested at 30,000×g. Cells were lysed with lysozyme in lysis buffer (50 mM Tris-HCl, 2 mM Tris[2-carboxyethyl]phosphine (TCEP), 10 μM ZnCl2, 200 mM NaCl) and further treated with sonication for 10 min for complete lysis. The protein was purified over a Ni-NTA column (Amersham) and fractions containing pure protein were pooled, concentrated and run over a sizing column (Sephadex S200 26/60 global). The peak containing soluble protein was collected and run on an Ion-exchange column (MonoQ). Gradient elution (200 mM-500 mM NaCl) yielded pure protein. This protein was concentrated and dialyzed against dialysis buffer (20 mM Tris-HCl, 2 mM TCEP) overnight. The protein was aliquoted and frozen at −80° C. until further use.
Sirtuin modulating compounds that activated SIRT1 were identified using the assay described above and are shown below in Table 1 for compounds of Formula (III)). The EC1.5 values represent the concentration of test compounds that result in 150% activation of SIRT1. The EC1.5 values for the activating compounds in Table 1 are represented by A (EC1.5<10.0 μM), B (EC1.5 10-25 μM), C (EC1.5>25 μM). The percent maximum fold activation is represented by A (Fold activation>200%) or B (Fold Activation<200%); “NT” means not tested; “ND” mean not determinable.

Row | EC1.5 (concentration of test compound that results in 150% activation of SIRT1) | Emax | SMILES
1 | C (EC1.5>25 μM) |  | O=C(Nc1ccnc(N2CCCC2)c1)C1CCCc2ccc(-c3cccc(C(F)(F)F)c3F)nc21 (stereo not shown) [Compound 273]
2 | A (EC1.5<10.0 μM) | < 200% | O=C(Nc1ccnc(N2CCCC2)c1)C1CCCc2ccc(-c3cccc(N4CCOCC4)c3)nc21 (stereo not shown) [Compound 278]
3 | C (EC1.5>25 μM) |  | O=C(Nc1nccs1)C1CCCc2ccc(-c3cccc(C(F)(F)F)c3)nc21 (stereo not shown) [Compound 279]
4 | C (EC1.5>25 μM) |  | Cc1nc(NC(=O)C2CCCc3ccc(-c4cccc(C(F)(F)F)c4)nc32)sc1C (stereo not shown) [Compound 281]
5 | B (EC1.5 10-25 μM) | < 200% | Cc1cc(NC(=O)C2CCCc3ccc(-c4cccc(C(F)(F)F)c4)nc32)sn1 (stereo not shown) [Compound 282]
6 | C (EC1.5>25 μM) |  | O=C(Nc1ccccn1)C1CCCc2ccc(-c3cccc(C(F)(F)F)c3)nc21 (stereo not shown) [Compound 284]
7 | C (EC1.5>25 μM) |  | O=C(Nc1cccnc1)C1CCCc2ccc(-c3cccc(C(F)(F)F)c3)nc21 (stereo not shown) [Compound 285]
8 | C (EC1.5>25 μM) |  | O=C(Nc1ccncc1)C1CCCc2ccc(-c3cccc(C(F)(F)F)c3)nc21 (stereo not shown) [Compound 286]
9 | C (EC1.5>25 μM) |  | O=C(NC1CCOCC1)C1CCCc2ccc(-c3cccc(C(F)(F)F)c3)nc21 (stereo not shown) [Compound 287]
10 | C (EC1.5>25 μM) |  | Cc1cc(NC(=O)C2CCCc3ccc(-c4cccc(C(F)(F)F)c4)nc32)no1 (stereo not shown) [Compound 288]
11 | B (EC1.5 10-25 μM) | < 200% | O=C(Nc1cnccn1)C1CCCc2ccc(-c3cccc(C(F)(F)F)c3)nc21 (stereo not shown) [Compound 289]
12 | C (EC1.5>25 μM) |  | Cc1ccnc(NC(=O)C2CCCc3ccc(-c4cccc(C(F)(F)F)c4)nc32)n1 (stereo not shown) [Compound 292]
13 | A (EC1.5<10.0 μM) | > 200% | O=C(Nc1nc(CN2CCOCC2)cs1)C1CCCc2ccc(-c3cccc(C(F)(F)F)c3)nc21 (stereo not shown) [Compound 294]
14 | C (EC1.5>25 μM) |  | O=C(Nc1nc2ccccc2s1)C1CCCc2ccc(-c3cccc(C(F)(F)F)c3)nc21 (stereo not shown) [Compound 295]
15 | C (EC1.5>25 μM) |  | O=C(Nc1ncc(CN2CCCC2)s1)C1CCCc2ccc(-c3cccc(C(F)(F)F)c3)nc21 (stereo not shown) [Compound 296]
16 | C (EC1.5>25 μM) |  | O=C(Nc1cccc(CN2CCOCC2)n1)C1CCCc2ccc(-c3cccc(C(F)(F)F)c3)nc21 (stereo not shown) [Compound 297]
17 | C (EC1.5>25 μM) |  | O=C(Nc1cccc(N2CCOCC2)n1)C1CCOc2ccc(-c3cccc(C(F)(F)F)c3)nc21 (stereo not shown) [Compound 302, N-(6-morpholinopyridin-2-yl)-6-(3-(trifluoromethyl)phenyl)-3,4-dihydro-2H-pyrano[3,2-b]pyridine-4-carboxamide]
18 | C (EC1.5>25 μM) |  | O=C(Nc1ccncn1)C1CCOc2ccc(-c3cccc(C(F)(F)F)c3)nc21 (stereo not shown) [Compound 303]
